Laboratory results published in patent publication US20050245527A1, “Nitrogen containing heterocyclic compounds and medicines containing the same” (priority 2002, published 2005).
Where a name gives a salt, the structure may show the parent alone.

Tested on: sodium channels
Format: cell-based
Conditions: read-out: IC50 (μM), sodium channel-inhibiting activity; rat fetal cultured hippocampal neurons, SBFI fluorescence in the presence of 4-aminopyridine, 5 minutes after addition, 1 μM tetrodotoxin = 100%

| SMILES | IC50 [µM] |
| --- | --- |
| O=C(Cc1ccccc1F)C1CCN(Cc2ccn[nH]c2=O)CC1 [Example 364, 4-[4-[2-(2-Fluorophenyl)acetyl]piperidino]methyl-2H-pyridazin-3-one] | 9.3 |
| O=C(Cc1cccc2ccccc12)C1CCN(Cc2ncc[nH]c2=O)CC1 [Example 353, 3-[4-[2-(1-Naphthyl)acetyl]piperidino]methyl-1H-pyrazin-2-one] | 1.7 |
| O=c1[nH]ccnc1CN1CCC(c2nc(-c3ccccc3)no2)CC1 [Example 215, 3-[4-(3-Phenyl-1,2,4-oxadiazol-5-yl)piperidino]methyl-1H-pyrazin-2-one] | 4.1 |
| C[C@H]1C[C@H](C(=O)Cc2ccccc2F)CCN1Cc1ncc[nH]c1=O (relative stereo) [Example 414, trans-3-[4-[2-(2-Fluorophenyl)acetyl]-2-methylpiperidino]methyl-1H-pyrazin-2-one] | 7.9 |
| COc1ccccc1CCC1CCCN(Cc2ncc[nH]c2=O)C1 (centres unmarked) [Example 155, 3-[3-[2-(2-Methoxyphenyl)ethyl]piperidino]methyl-1H-pyrazin-2-one] | 3.5 |
| O=c1[nH]ccnc1CN1CCC(CCOc2ccccc2F)CC1 [Example 159, 3-[4-[2-(2-Fluorophenoxy)ethyl]piperidino]methyl-1H-pyrazin-2-one] | 9.4 |
| C[C@@H]1CN(Cc2ncc[nH]c2=O)CC[C@H]1C(=O)Cc1ccccc1F (relative stereo) [Example 366, trans-3-[4-[2-(2-Fluorophenyl)acetyl]-3-methylpiperidino]methyl-1H-pyrazin-2-one] | 4.2 |
| Cc1ccccc1OCC1(C)CCN(Cc2ncc[nH]c2=O)CC1 [Example 355, 3-[4-Methyl-4-(2-methylphenoxymethyl)piperidino]methyl-1H-pyrazin-2-one] | 2.5 |
| O=c1cncc(CCN2CCC(COc3cccc(F)c3)CC2)[nH]1 [Example 238, 6-[2-[4-(3-Fluorophenoxymethyl)piperidino]ethyl]-1H-pyrazin-2-one] | 5.6 |
| Cc1ccccc1C#CC1(O)CCN(Cc2ncc[nH]c2=O)CC1 [Example 218, 3-[4-(2-Methylphenyl)ethynyl-4-hydroxypiperidino]methyl-1H-pyrazin-2-one] | 3.6 |
| Cc1ccccc1OCC1(C#N)CCN(Cc2ncc[nH]c2=O)CC1 [Example 121, 1-(3-Oxo-3,4-dihydro-2-pyrazinylmethyl)-4-(2-methylphenoxymethyl)piperidine-4-carbonitrile] | 5.7 |
| O=C(Cc1ccccc1F)C1(F)CCN(Cc2ncc[nH]c2=O)CC1 [Example 370, 3-[4-Fluoro-4-[2-(2-fluorophenyl)acetyl]piperidino]methyl-1H-pyrazin-2-one] | 9.6 |
| O=C(Cc1ccccc1OC(F)(F)F)C1CCN(Cc2ncc[nH]c2=O)CC1 [Example 345, 3-[4-[2-[2-(Trifluoromethoxy)phenyl]acetyl]piperidino]methyl-1H-pyrazin-2-one] | 2.1 |
| O=c1[nH]ccnc1CN1CCC(C(Cc2ccccc2F)=NO)CC1 [Example 202, 3-[4-[1-Hydroxyimino-2-(2-fluorophenyl)ethyl]piperidino]methyl-1H-pyrazin-2-one] | 4.9 |
| O=c1[nH]ccnc1CN1CCC(CSc2ccccc2F)CC1 [Example 336, 3-[4-[(2-Fluorophenylthio)methyl]piperidino]methyl-1H-pyrazin-2-one] | 4.7 |
| O=C(Cc1ccccc1C(F)(F)F)C1(F)CCN(Cc2ncc[nH]c2=O)CC1 [Example 372, 3-[4-Fluoro-4-[2-[2-(trifluoromethyl)phenyl]acetyl]piperidino]methyl-1H-pyrazin-2-one] | 3.3 |
| O=c1[nH]ccnc1CN1CCC(O)(COc2ccccc2F)CC1 [Example 211, 3-[4-Hydroxy-4-(2-fluorophenoxymethyl)piperidino]methyl-1H-pyrazin-2-one] | 8.2 |
| O=c1[nH]ccnc1CN1CCCC(COc2ccccc2F)CC1 (centres unmarked) [Example 388, 3-[4-(2-Fluorophenoxymethyl)azepan-1-yl]methyl-1H-pyrazin-2-one] | 4.7 |
| N#Cc1ccccc1OCC1CCN(Cc2ncc[nH]c2=O)CC1 [Example 166, 3-[4-(2-Cyanophenoxymethyl)piperidino]methyl-1H-pyrazin-2-one] | 8.7 |
| COc1ccccc1OCC1CCN(CCc2cncc(=O)[nH]2)CC1 [Example 240, 6-[2-[4-(2-Methoxyphenoxymethyl)piperidino]ethyl]-1H-pyrazin-2-one] | 6.4 |
| O=c1cncc(CCN2CCC(O)(COc3ccccc3F)CC2)[nH]1 [Example 118, 6-[2-[4-Hydroxy-4-(2-fluorophenoxymethyl)piperidino]ethyl]-1H-pyrazin-2-one] | 3.1 |
| O=C(Cc1ccccc1-c1ccccc1)C1CCN(Cc2ncc[nH]c2=O)CC1 [Example 359, 3-[4-[2-(2-Biphenyl)acetyl]piperidino]methyl-1H-pyrazin-2-one] | 1.4 |
| O=c1cncc(CCN2CCC(COc3cccc(F)c3F)CC2)[nH]1 [Example 242, 6-[2-[4-(2,3-Difluorophenoxymethyl)piperidino]ethyl]-1H-pyrazin-2-one] | 6.2 |
| O=c1[nH]ccnc1CN1CCC(CS(=O)(=O)c2ccccc2F)CC1 [Example 338, 3-[4-[(2-Fluorophenylsulfonyl)methyl]piperidino]methyl-1H-pyrazin-2-one] | 9.8 |

| SMILES | IC50 [µM] |
| --- | --- |
| CC(C(=O)C1CCN(Cc2ncc[nH]c2=O)CC1)c1ccccc1F (centres unmarked) [Example 349, 3-[4-[2-(2-Fluorophenyl)propionyl]piperidino]methyl-1H-pyrazin-2-one] | 8.9 |
| O=c1cncc(CCN2CCCC(COc3ccccc3F)C2)[nH]1 (centres unmarked) [Example 117, 6-[2-[3-(2-Fluorophenoxymethyl)piperidino]ethyl]-1H-pyrazin-2-one] | 4.4 |
| N#CC1(COc2ccccc2F)CCN(Cc2ncc[nH]c2=O)CC1 [Example 221, 3-[4-Cyano-4-(2-fluorophenoxymethyl)piperidino]methyl-1H-pyrazin-2-one] | 4.9 |
| O=c1[nH]ccnc1CN1CCC(SCc2ccccc2F)CC1 [Example 411, 3-[4-(2-Fluorobenzylthio)piperidino]methyl-1H-pyrazin-2-one] | 4.8 |
| O=c1[nH]ccnc1CN1CCC(C[S+]([O-])c2ccccc2F)CC1 (centres unmarked) [Example 337, 3-[4-[(2-Fluorophenylsulfinyl)methyl]piperidino]methyl-1H-pyrazin-2-one] | 6.5 |
| CC(c1ncc[nH]c1=O)N1CCC(COc2ccccc2F)CC1 (centres unmarked) [Example 395, 3-[1-[4-(2-Fluorophenoxymethyl)piperidino]ethyl]-1H-pyrazin-2-one oxalate] | 6.7 |
| CC1(COc2ccccc2F)CCN(Cc2ncc[nH]c2=O)CC1 [Example 406, 3-[4-(2-Fluorophenoxymethyl)-4-methylpiperidino]methyl-1H-pyrazin-2-one] | 3 |
| O=C(Cc1ccccc1)C1CCN(Cc2ncc[nH]c2=O)CC1 [Example 196, 3-[4-(2-Phenylacetyl)piperidino]methyl-1H-pyrazin-2-one] | 6.2 |
| CC(Oc1ccccc1F)C1CCN(Cc2ncc[nH]c2=O)CC1 (centres unmarked) [Example 175, 3-[4-[1-(2-Fluorophenoxy)ethyl]piperidino]methyl-1H-pyrazin-2-one] | 2.6 |
| O=C(Cc1ccccc1F)C1CCN(Cc2nc3ccccc3[nH]c2=O)CC1 [Example 206, 3-[4-[2-(2-Fluorophenyl)acetyl]piperidino]methyl-1H-quinoxalin-2-one] | 5.2 |
| O=c1[nH]ccnc1CN1CCOC(/C=C/c2ccccc2F)C1 (centres unmarked) [Example 341, (E)-3-[3-[2-(2-Fluorophenyl)vinyl]morpholin-1-yl]methyl-1H-pyrazin-2-one] | 7.1 |
| O=c1cncc(CCN2CCC(O)(C#Cc3ccccc3F)CC2)[nH]1 [Example 120, 6-[2-[4-Hydroxy-4-[(2-fluorophenyl)ethynyl]piperidino]ethyl]-1H-pyrazin-2-one] | 8.5 |
| O=c1[nH]ccnc1CN1CCC([S+]([O-])Cc2ccccc2F)CC1 (centres unmarked) [Example 398, 3-[4-(2-Fluorobenzylsulfinyl)piperidino]methyl-1H-pyrazin-2-one] | 3.4 |
| COC(Cc1ccccc1F)C1CCN(Cc2ncc[nH]c2=O)CC1 (centres unmarked) [Example 190, 3-[4-[2-(2-Fluorophenyl)-1-methoxyethyl]piperidino]methyl-1H-pyrazin-2-one] | 1.2 |
| O=c1[nH]ccnc1CN1CCC(c2nc(-c3ccc(F)cc3)no2)CC1 [Example 189, 3-[4-[3-(4-Fluorophenyl)-1,2,4-oxadiazol-5-yl]piperidino]methyl-1H-pyrazin-2-one] | 7.2 |
| O=c1[nH]ccnc1CN1CCC(CC(O)c2ccccc2F)CC1 (centres unmarked) [Example 144, 3-[4-[2-(2-Fluorophenyl)-2-hydroxyethyl]piperidino]methyl-1H-pyrazin-2-one] | 5.8 |
| COc1cccc(OCC2CCN(Cc3ncc[nH]c3=O)CC2)c1 [Example 161, 3-[4-(3-Methoxyphenoxymethyl)piperidino]methyl-1H-pyrazin-2-one] | 3.5 |
| O=c1[nH]ccnc1CN1CCC(COc2ccc(F)cc2)CC1 [Example 199, 3-[4-(4-Fluorophenoxymethyl)piperidino]methyl-1H-pyrazin-2-one] | 6.2 |
| Cn1c(CCN2CCC(COc3ccccc3F)CC2)cncc1=O [Example 249, 6-[2-[4-(2-Fluorophenoxymethyl)piperidino]ethyl]-1-methyl-1H-pyrazin-2-one] | 3.2 |
| O=C(Cc1cccc2c1OCC2)C1CCN(Cc2ncc[nH]c2=O)CC1 [Example 410, 3-[4-[2-(2,3-Dihydrobenzofuran-7-yl)acetyl]piperidino]methyl-1H-pyrazin-2-one] | 5.7 |
| Cc1ccccc1CCC1(O)CCN(Cc2ccc[nH]c2=O)CC1 [Example 125, 3-[4-Hydroxy-4-[2-(2-methylphenyl)ethyl]piperidino]methyl-1H-pyridin-2-one] | 5 |
| O=c1[nH]ccnc1CN1CCC2(CC1)CC(Oc1ccccc1F)C2 [Example 226, 3-[2-(2-Fluorophenoxy)-7-azaspiro[3.5]non-7-yl]methyl-1H-pyrazin-2-one] | 4.5 |
| O=C(Cc1ccccc1Br)C1CCN(Cc2ncc[nH]c2=O)CC1 [Example 362, 3-[4-[2-(2-Bromophenyl)acetyl]piperidino]methyl-1H-pyrazin-2-one] | 4.5 |
